Experimental data published in patent US20060241067A1, “Methods For inhibiting angiogenesis, cell migration, cell adhesion, and cell survival” (priority 2002, published 2006).
“Also recorded” adds a separate entry of the source.

Key:
[1] = tested on: Human umbilical vein endothelial cells (HUVEC); experiment: Endothelial cell migration assay (transwell) on ECM substrates; type: cell-based; details: 250 μM dibutyryl cAMP or transient transfection with expression constructs
Description: (§1) Human umbilical vein endothelial cells (HUVEC) were grown in Endothelial Growth Medium (containing 2% fetal bovine serum, bFGF and VEGF) (Clonetics, San Diego, Calif.). To render HUVECs quiescent for Rac and/or Rho assays, monolayers of endothelial cells were incubated for 18 hrs in Endothelial Basal Medium supplemented with 0.1% serum (Clonetics). Cell migration and adhesion assays on ECM substrates were performed as previously described in Kim et al. (S. Kim et al., Amer. J. Biol. Chem., 275:33920-33928 (2000); and S. Kim et al., Amer. J. Path., 156:1345-1362 (2000)).
Migration assays were performed essentially as described (Kim, et. al., 2000). […] HUVECS (25,000) were added to the upper chamber of inserts in migration buffer (Hepes buffered M199 medium containing 1% BSA, 2 mM MgCl2, 2 mM CaCl2 and 0.2 mM MnCl2) containing 25 μg/ml of various antibodies. In some experiments, 250 μM dibutyryl cAMP was placed in the upper and lower chambers of the transwell. Cells were allowed to migrate from the upper to the lower chamber for four hours at 37° C. The number of cells which had migrated were counted in three representative high power (200×) fields per insert. The data are presented as number of cells migrating+/−standard error of the mean. Migration assays were similarly performed on transfected cells. In this case, migrated transfected cells were identified by fluorescent microscopy and counted.

Rho = Rho activity assay (GST-Rhotekin binding domain affinity precipitation); type: cell-based, human; details: cells attached to vitronectin 15 minutes; 250 μM dibutyryl cAMP or transfection
Description: as §1
Rho activity was determined by measuring the amount of Rho affinity bound to GST-Rhotekin binding domain (RBD). Levels of active Rho were determined by Western blotting affinity precipitated protein with anti-Rho antibodies while total Rho levels were measured by immunoblotting total cell lysates with anti-Rho. Rac activity was determined by measuring the amount of Rac affinity precipitated by the GST-p21-activated protein binding domain, PBD (Upstate Biotechnology, Syracuse, N.Y.). Levels of active Rac were determined by immunoblotting affinity precipitated protein with anti-Rac antibodies. […] Total Rac levels were measured by immunoblotting total cell lysates with anti-Rac.

HUVECS [2] = experiment: Staining of actin filaments and focal contacts (rhodamine phalloidin, anti-vinculin); type: cell-based, human
Description: Round […] glass coverslips were coated with 5 μg/ml vitronectin for 1 hour at 37° C., then blocked with 3% bovine serum albumin for 2 hours at 37° C. HUVECS were removed from culture dishes by trypsizination, washed in serum-free culture medium, and resuspended in endothelial basal culture medium. Cells were then incubated for one hour at 37° C. on coated coverslips. Cells were incubated in the presence of 25 μg/ml anti-α5β1, anti-α2β1 or no antibodies for 60 minutes. Alternatively, cells in endothelial growth medium containing VEGF and bFGF but no serum were plated on coverslips for 48 hours and then treated with cAMP or medium. Coverslips were then washed to remove unbound cells, fixed for 5 minutes in 3.7% paraformaldehyde and permeabilized in 0.3% TX-100 for 3 minutes. Coverslips were incubated with 0.2 μg/ml anti-vinculin antibodies or rhodamine phalloidin (20 ng/ml) in 20 mg/ml bovine serum albumin in phosphate buffered saline for one hour at room temperature. Coverslips were well washed in PBS and incubated in 10 μg/ml goat anti-mouse-Alexa 568 (for anti-vinculin) for 1 hour at room temperature. Coverslips were mounted using mounting medium prior to fluorescent microsopy.

HUVECS [3] = experiment: Annexin V-FITC staining of HUVECs (apoptosis); type: cell-based, human; details: cells on vitronectin, PTHrP, 250 μM dibutyryl cAMP or transfection
Description: Plates were also coated with […] goat anti-mouse IgG (Southern Biotechnology Associates, Inc., Birmingham, Ala.) at 37° C. for 2 h, rinsed, blocked with denatured BSA, and then incubated with […] anti-a5b1 or control IgG (anti-MHC) at 4° C. for 16 hrs. HUVECs were incubated on plates in the presence or absence of 10 mg/ml anti-α5β1, -αvβ3, -α2β1, or -MHC for 0-24 hrs. In some experiments, HUVECs were incubated with antibodies and […] caspase-3, -8 or -9 inhibitors or vehicle control (0.5% DMSO). Cells were then incubated with Annexin V-FITC for 15 min at room temperature in the dark. Washed cells were fixed in 1% paraformaldehyde, then incubated in DAPI. The percentage of Annexin positive cells in 5 microscopic fields was determined at 200× magnification by fluorescence microscopy.
HUVECs were plated for 24 h on ECM protein-coated plates in the presence of anti-αvβ3 or anti-α5β1, 1 μM HA1004 (a PKA inhibitor), and anti-αvβ3 or anti-α5β1 with 1 μM HA1004. Cells were stained with FITC-Annexin V or immunoblotted with anti-cleaved caspase 3 antibodies as described above. 5×10^6 HUVECs were electroporated in 300 μl of EGM with 30 μg of DNA (20 μg dnPKA or PKAcat plasmids, 2 μg N1-GFP and 8 μg pBluescript) at 300 V, 450 μF as previously described (Dormond et al. (2001) Nature Med. 7,1041-7). Expression of transgenes was determined by Western blotting of cell lysates with anti-V5 and anti-GFP antibodies. Transfection efficiency was quantified by determining the percent of cells that were co-transfected with GFP-expression vectors. Eighty-percent transfection efficiency was generally achieved using this electroporation method.

[4] = tested on: chick chorioallantoic membrane (CAM); experiment: Chick chorioallantoic membrane (CAM) angiogenesis assay; type: in vivo, chicken; details: bFGF stimulated CAMs; 250 μM cAMP or 4 μg plasmid

In the case of `CCCC(=O)Nc1ncnc2c1ncn2[C@@H]1O[C@@H]2COP(=O)(O)O[C@H]2[C@H]1OC(=O)CCC` [dibutyryl cAMP], the “endothelial cell migration on vitronectin” value [1] is reported as “quantitatively inhibits endothelial cell migration”, the “Rho activity (GTP-loading)” value (Rho) is reported as “stimulates Rho activity (GTP-loading)” and the “increase in the number of focal adhesions” value (HUVECS [2]; cAMP treated versus untreated cells) is reported as 3 fold. For the same molecule, the “cell shape, stress fibers and actin remodeling” value (HUVECS [2]; cAMP treatment or transfection, vitronectin) was “remain round and flat and exhibit neither stress fibers nor cortical actin; also recorded: inhibited actin remodeling and induced a flattened morphology”, the “localization of Rho A” value (HUVECS [2]; immunolocalization, cAMP treated cells) was “stimulates the translocation of Rho A to the plasma membrane” and the “apoptosis of endothelial cells (annexin V positive cells)” value (HUVECS [3]) was “induced apoptosis in endothelial cells”. The “apoptosis of endothelial cells (annexin V positive cells)” value (HUVECS [3]; listed as cAMP) was “significantly induce apoptosis” and the “angiogenesis (blood vessel branch points)” value [4] was “completely suppresses angiogenesis; also recorded: potently inhibits angiogenesis”.
